Results on 4 compounds are retold here after article PMC10013843 (Molecular psychiatry, 2022).

Series [1] has as its system rats. The following applies: cited from earlier work.
In the next series the test system is MOR and KOR. As to conditions: cited from earlier work.
In series [2] the test system is rats. Nature of the series: Heroin self-administration and substitution. The following applies: 0.5 mg/kg/inf IV. In kind it is in vivo, rat.
The next series has as its target mu-opioid receptors, MOR (Rattus norvegicus, UniProt P33535). As to conditions: cited from earlier work.
In series [3] the target is kappa-opioid receptors, KOR (Rattus norvegicus, UniProt P34975). The following applies: cited from earlier work.
For the next series, the target named is MOR (OPRM1) (Homo sapiens, UniProt P35372). As to conditions: cited from earlier work.
The next series has as its target KOR (OPRK1) (Homo sapiens, UniProt P41145). As to conditions: cited from earlier work.
The target of series [4] is T1, HCN1 channel (Homo sapiens, UniProt O60741).
T1 sequence (O60741 1-890): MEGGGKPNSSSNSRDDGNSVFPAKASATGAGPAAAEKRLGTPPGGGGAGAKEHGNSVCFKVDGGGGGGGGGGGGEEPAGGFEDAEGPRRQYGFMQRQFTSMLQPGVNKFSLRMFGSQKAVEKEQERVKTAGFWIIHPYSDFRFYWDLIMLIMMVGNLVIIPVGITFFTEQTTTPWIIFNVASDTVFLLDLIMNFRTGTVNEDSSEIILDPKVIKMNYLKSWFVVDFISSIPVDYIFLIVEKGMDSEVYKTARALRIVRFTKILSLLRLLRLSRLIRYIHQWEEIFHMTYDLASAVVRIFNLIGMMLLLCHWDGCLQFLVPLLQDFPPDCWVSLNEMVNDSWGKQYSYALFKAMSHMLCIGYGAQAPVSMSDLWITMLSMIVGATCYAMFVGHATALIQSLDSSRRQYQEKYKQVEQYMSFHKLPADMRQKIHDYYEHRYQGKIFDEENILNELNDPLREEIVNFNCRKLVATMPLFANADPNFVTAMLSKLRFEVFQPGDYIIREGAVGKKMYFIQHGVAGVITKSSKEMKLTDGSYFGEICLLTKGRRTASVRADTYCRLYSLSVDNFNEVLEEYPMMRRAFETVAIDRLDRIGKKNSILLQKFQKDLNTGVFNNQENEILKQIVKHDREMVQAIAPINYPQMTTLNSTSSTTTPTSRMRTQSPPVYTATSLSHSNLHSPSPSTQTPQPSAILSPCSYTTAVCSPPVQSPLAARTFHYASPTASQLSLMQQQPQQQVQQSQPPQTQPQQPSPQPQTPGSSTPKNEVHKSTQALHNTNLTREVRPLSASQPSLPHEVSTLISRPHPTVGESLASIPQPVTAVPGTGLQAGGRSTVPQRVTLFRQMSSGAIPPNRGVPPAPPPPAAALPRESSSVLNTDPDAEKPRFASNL
Nature of the series: HCN1 channel functional interaction. In kind it is biochemical.

A further series concerns the target sigma-1 receptors (Rattus norvegicus, UniProt Q9R0C9). As to conditions: cited from earlier work.
Series [5] addresses T1, HCN1 channel. As to conditions: cited from earlier work.
Series [6] concerns rats. The following applies: cited from earlier work. This is another data set of the same source.

Sequence of kappa-opioid receptors, KOR (P34975 whole entry): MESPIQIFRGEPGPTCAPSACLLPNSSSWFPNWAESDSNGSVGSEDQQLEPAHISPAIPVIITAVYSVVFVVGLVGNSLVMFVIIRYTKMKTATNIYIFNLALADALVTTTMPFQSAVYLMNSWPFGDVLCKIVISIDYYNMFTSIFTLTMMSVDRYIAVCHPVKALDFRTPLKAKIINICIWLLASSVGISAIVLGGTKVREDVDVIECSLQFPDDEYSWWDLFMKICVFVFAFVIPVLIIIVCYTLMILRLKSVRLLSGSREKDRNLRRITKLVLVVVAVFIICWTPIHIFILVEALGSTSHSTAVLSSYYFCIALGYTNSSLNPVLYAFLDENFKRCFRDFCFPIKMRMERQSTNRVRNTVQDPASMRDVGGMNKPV
Sequence of mu-opioid receptors, MOR (P33535 whole entry): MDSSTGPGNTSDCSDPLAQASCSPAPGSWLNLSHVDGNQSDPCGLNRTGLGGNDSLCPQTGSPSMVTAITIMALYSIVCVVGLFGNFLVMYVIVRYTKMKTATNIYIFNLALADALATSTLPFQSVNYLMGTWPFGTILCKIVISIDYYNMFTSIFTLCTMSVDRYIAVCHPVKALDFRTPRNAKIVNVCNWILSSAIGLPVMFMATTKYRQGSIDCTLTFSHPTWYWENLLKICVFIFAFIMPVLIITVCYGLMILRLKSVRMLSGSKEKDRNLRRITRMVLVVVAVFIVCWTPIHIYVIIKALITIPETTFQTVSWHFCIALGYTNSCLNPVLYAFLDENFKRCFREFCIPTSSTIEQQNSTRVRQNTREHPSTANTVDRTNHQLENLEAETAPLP
Sequence of sigma-1 receptors (Q9R0C9 whole entry): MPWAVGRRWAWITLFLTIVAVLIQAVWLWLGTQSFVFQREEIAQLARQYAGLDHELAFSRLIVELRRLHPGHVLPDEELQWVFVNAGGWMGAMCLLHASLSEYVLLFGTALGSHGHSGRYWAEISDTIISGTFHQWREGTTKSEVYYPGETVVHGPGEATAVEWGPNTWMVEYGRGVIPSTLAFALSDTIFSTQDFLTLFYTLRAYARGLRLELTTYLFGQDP
Sequence of KOR (OPRK1) (P41145 whole entry): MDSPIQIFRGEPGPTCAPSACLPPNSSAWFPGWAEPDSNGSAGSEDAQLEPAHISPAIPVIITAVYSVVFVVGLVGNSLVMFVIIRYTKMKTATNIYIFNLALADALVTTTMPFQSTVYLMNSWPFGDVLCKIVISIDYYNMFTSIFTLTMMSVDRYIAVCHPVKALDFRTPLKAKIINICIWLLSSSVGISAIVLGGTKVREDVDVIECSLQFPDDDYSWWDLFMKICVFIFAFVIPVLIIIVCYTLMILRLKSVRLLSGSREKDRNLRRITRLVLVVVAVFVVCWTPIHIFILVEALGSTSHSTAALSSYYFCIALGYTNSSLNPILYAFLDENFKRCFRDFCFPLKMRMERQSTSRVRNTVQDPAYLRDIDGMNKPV
Sequence of MOR (OPRM1) (P35372 whole entry): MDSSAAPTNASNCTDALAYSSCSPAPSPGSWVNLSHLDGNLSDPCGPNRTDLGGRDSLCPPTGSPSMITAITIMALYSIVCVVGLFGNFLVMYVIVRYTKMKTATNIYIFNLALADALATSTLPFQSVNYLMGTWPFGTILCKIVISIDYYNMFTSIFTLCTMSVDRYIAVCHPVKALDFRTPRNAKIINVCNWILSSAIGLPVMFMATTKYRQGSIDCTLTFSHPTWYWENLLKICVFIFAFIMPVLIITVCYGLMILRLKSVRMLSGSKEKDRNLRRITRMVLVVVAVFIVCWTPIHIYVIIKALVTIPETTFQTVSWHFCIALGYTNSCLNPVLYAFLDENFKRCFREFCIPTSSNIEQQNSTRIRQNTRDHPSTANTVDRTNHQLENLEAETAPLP

For the compound `CN[C@]1(c2ccccc2Cl)CCCCC1=O` [(S)-ketamine], the self-administration in rats entry with rats [1] is on record as “is self-administered”. Further, the β-arrestin signaling entry in the series with MOR and KOR is on record as “do not activate”. Moreover, in the series on rats [2], the “pressing on first session after heroin substitution” value is listed as “increased their pressing” and the “self-administration on successive sessions after heroin substitution” value is listed as “escalation of self-administration”. Further, the “binding to mu (MOR) opioid receptors” value on mu-opioid receptors, MOR is “bind”. Further, the “binding to kappa (KOR) opioid receptors” value in series [3] is given as “bind”.

Consider `CN[C@@]1(c2ccccc2Cl)CCCCC1=O` [(R)-ketamine], for which, at MOR (OPRM1), the “MOR signaling, inhibition of cAMP accumulation” value is “partial agonists”. The β-arrestin signaling result in the series with MOR and KOR is listed as “do not activate”. Also, at KOR (OPRK1), the “KOR signaling, inhibition of cAMP accumulation” value is “partial agonists”. For the same compound, on mu-opioid receptors, MOR, the “binding to mu (MOR) opioid receptors” value was “bind”. Also, the “binding to kappa (KOR) opioid receptors” value in [3] was “bind”.

For `CNC1(c2ccccc2Cl)CCCCC1=O` (racemic) [ketamine, (R,S)-ketamine], the “interaction with the HCN1 channel” value at HCN1 channel [4] is “neither (2R,6R)-HNK nor ketamine interacted”. For the same compound, the “binding to sigma receptors” value at sigma-1 receptors is “weak binding”. The “effect on HCN1 channels” value on HCN1 channel [5] is given as “inhibit”.

As for `N[C@@]1(c2ccccc2Cl)CCC[C@@H](O)C1=O` [(2S,6S;2R,6R)-HNK, (2S,6S;2R,6R)-Hydroxynorketamine], the “effect on acute morphine nociception or tolerance” value in the series on rats [6] was “no effect”.
